Consider three compounds from patent US4868182A, “Enhancement of prazosin” (Merrell Dow Pharmaceuticals Inc., priority 1988, dated 1989).

Test [1] relates to spontaneously hypertensive rats. Nature of the test: lowering of systolic blood pressure in spontaneously hypertensive rats. Conditions: SHR, oral, prazosin 0.1 mg/kg, alone or combined, mean ± SE. Format: in vivo, rat.
Test [2] has as its target cyclic AMP-phosphodiesterase. Nature of the test: in vitro inhibition of cyclic AMP-phosphodiesterase. Format: biochemical. Conditions: 50% inhibition of cyclic AMP-phosphodiesterase activity on 1 micromolar substrate. On the procedure: In general, the specific cyclic AMP-phosphodiesterase inhibitors of this invention, (i.e., the above-described cardiotonic agents) when conjunctively administered with prazosin to effect their synergistic activity, are administered at about the threshold dose to exert a blood pressure lowering effect, i.e., the minimum dose it takes to exert a statistically significant lowering of blood pressure. This threshold dose is readily determined by standard laboratory methodology. For example, assays such as the Spontaneously Hypertensive Rat and the Anesthesized Dog for testing blood pressure effects may readily be employed to determine the threshold dose of lowering blood pressure. The threshold dose may also be approximately calculated from an in vitro IC50 value. For this purpose the in vitro IC50 value is the micromolar quantity of compound needed to effect a 50% inhibition of the activity of cyclic AMP-phosphodiesterase on one (1) micromolar quantity of substrate. This IC50 value, when multiplied by the appropriate fraction for intravenous and oral administrations will yield the dosage range, in mg per kg of body weight, necessary to effect its synergism with prazosin.
On the basis of spontaneously hypertensive rat data the multiplying factor is 1/10 to 1 for the intravenous dose and 1 to 10 for the oral dose. […]

For `Nc1cc(-c2ccncc2)c[nH]c1=O` [amrinone], in test [1] (Table 2, amrinone 55 mg/kg), the “systolic blood pressure change from control at 1 hour” value is recorded as -26 ± 6 mmHg, the “systolic blood pressure change from control at 2 hours” value is -23 ± 5 mmHg, the “systolic blood pressure change from control at 3 hours” value is -21 ± 8 mmHg and the “systolic blood pressure change from control at 4 hours” value is given as -23 ± 7 mmHg.
For `COc1cc2nc(N3CCN(C(=O)c4ccco4)CC3)nc(N)c2cc1OC` [prazosin], in test [1] (Table 1, piroximone 25 mg/kg), the “systolic blood pressure change from control at 1 hour” value is reported as -40 ± 4 mmHg, the “systolic blood pressure change from control at 2 hours” value is listed as -40 ± 4 mmHg, the “systolic blood pressure change from control at 3 hours” value is on record as -42 ± 4 mmHg and the “systolic blood pressure change from control at 4 hours” value was -35 ± 5 mmHg. For the same compound, in test [1] (Table 2, amrinone 55 mg/kg), the “systolic blood pressure change from control at 1 hour” value is listed as -32 ± 3 mmHg, the “systolic blood pressure change from control at 2 hours” value was -31 ± 4 mmHg, the “systolic blood pressure change from control at 3 hours” value was -32 ± 4 mmHg and the “systolic blood pressure change from control at 4 hours” value is listed as -31 ± 4 mmHg.
As for `CCc1[nH]c(=O)[nH]c1C(=O)c1ccncc1` [piroximone], the IC50 in test [2] was found to be 26 µM. In addition, in test [1] (Table 1, piroximone 25 mg/kg), the “systolic blood pressure change from control at 1 hour” value is on record as -23 ± 5 mmHg, the “systolic blood pressure change from control at 2 hours” value is on record as -17 ± 6 mmHg, the “systolic blood pressure change from control at 3 hours” value was -18 ± 7 mmHg and the “systolic blood pressure change from control at 4 hours” value is on record as -20 ± 5 mmHg.
